Experimental data taken from patent publication US20100093670A1, “Compounds for the treatment of angiogenesis” (priority 2006, published 2010).
“Also recorded” adds a separate entry of the source.

What was measured:
Format in all cases: cell-based, human
HUVEC cells [1] = test: HUVEC cell morphology (shrinkage), time lapse imaging
Experimental: HUVEC cells (ATCC, VA) (passage number 4) were cultured in EGM2 medium (Cambrex, Mass.) on 24-well plates and time lapse imaging was performed in a cell culture system mounted on an inverted microscope supplied with 5% CO2. The temperature was kept at 35° C. Images were taken every 60 sec using 20× objective (FIGS. 1-3) or every 30 min using 2× objective (FIG. 4) for up to 90 hr. FIGS. 1-3 show results from three time points of treatment: 0, 50, 100 min. […] Most shrunken cells were at cell cycle interphase but not mitotic stage, and still moving on the culture surface, as observed in time-lapse movies (data not shown). The shrinking effect caused by Compound 249 (and CA4) is not identical to the apoptotic effect in mitotic cells after microtubule depolymerization.

HUVEC cells [2] = test: HUVEC migration, wound healing assay with time-lapse imaging; conditions: for inhibition of HUVEC migration to the blank area: 24, 48 and 72 hr after treatment, compared to DMSO
Source text: Using the above described time-lapse culture system, a wound healing assay was used to analyze the effect of Compound 249 and CA4 on HUVEC cells migration. Confluent HUVEC cultures were scraped similarly to make a blank area. Migration of remaining cells under different treatment was imaged at the same time to generate time-lapse image sequences. Time-lapse movies were further analyzed to calculate the number of cells that migrated to the blank area. In FIG. 4, the gray lines show the front line of cells after scraping and the red lines show the front lines of cells after migration at 24, 48 and 72 hr after treatment.

[3] = system: VE-cadherin junctions of HUVEC cells; test: VE-cadherin junctions of HUVEC cells, immunostaining; conditions: 24 hrs
Experimental: It was thought that these phenotypic changes might be associated with alterations of endothelial cell junctions. To determine if Compound 249 induced disengagement of HUVEC cell junctions, VE-cadherin junctions of HUVEC cells were examined. HUVEC cells were treated with DMSO or Compound 249 (0.1, 1, or 10 nM) for 24 hrs and fixed for immunostaining. DMSO concentration was 1:100 for all treatment. To boost the immunofluorescence signal, cells were stained with a mixture of two polyclonal anti-human VE-cadherin Abs (1:1 mixed, obtained from Amersham Biosciences, N.J., and Santa Cruz Biotechnology, Calif.) followed by staining with a mixture of fluorescent secondary antibodies. […] Non-DMSO treated cells gave a similar result to those with DMSO treatment (data not shown). With 1 nM Compound 249 treatment, VE-cadherin staining was reduced (red arrow in Compound 249 1 nM) compared to that in DMSO or Compound 249 0.1 nM treatment. […] In addition, the potent effect of Compound 249 on microtubule cytoskeletons can also contribute strongly to the cell-cell junction disruption.

[4] = 1 nM, compared to DMSO treatment

Row | SMILES | HUVEC cell shrinkage / morphological change (HUVEC cells [1]; [4]) | HUVEC cell shrinkage / morphological change (HUVEC cells [1]; 10 nM) | absolute migrated cell numbers (quantitative analysis, FIG. 5) (HUVEC cells [2]; 1 nM) | inhibition of HUVEC migration to the blank area (HUVEC cells [2]; 1 nM) | absolute migrated cell numbers (quantitative analysis, FIG. 5) (HUVEC cells [2]; 5 nM) | inhibition of HUVEC migration to the blank area (HUVEC cells [2]; 5 nM) | time of treatment within which HUVEC cell shrinkage was caused (HUVEC cells [1]; 1 nM) [min] | time of treatment within which HUVEC cell shrinkage was induced (HUVEC cells [1]; 1 nM) [h] | effect on HUVEC cell morphology (shrinkage) compared with CA4 (HUVEC cells [1]; comparison Compound 249 vs CA4) | inhibitory effect on HUVEC migration in vitro (overall) (HUVEC cells [2]) | time after treatment at which the difference in migration inhibition between Compound 249 and CA4 was noticeable (FIG. 6) (HUVEC cells [2]; 1 nM) [h] | inhibition of HUVEC migration compared with CA4 (HUVEC cells [2]; comparison Compound 249 vs CA4) | disengagement of VE-cadherin junctions ([3]; 1 nM) | VE-cadherin staining at cell-cell junctions ([3]; 1 nM, compared to DMSO or 0.1 nM) | VE-cadherin staining at cell-cell junctions ([3]; 10 nM) | disengagement of cell junctions ([3]; 10 nM)
1 | COc1ccc(/C=C\c2cc(OC)c(OC)c(OC)c2)cc1O [CA4, Combretastatin A4, reference compound] | did not cause obvious morphological changes | caused a similar change on HUVEC cells | much less of an effect on HUVEC migration | did not block the migration event | similar | significantly blocked migration |  |  |  |  |  |  |  |  |  | 
2 | COc1ccc(-c2cnoc2-c2cc(OC)c(OC)c(OC)c2)cc1N [Compound 249, 2-methoxy-5-(5-(3,4,5-trimethoxyphenyl)isoxazol-4-yl)aniline] | Induces HUVEC Cell Shrinkage; also recorded: caused HUVEC cell shrinkage; also recorded: induced shrinkage of HUVEC cells |  | similar | migration inhibition; also recorded: Inhibits HUVEC Migration; also recorded: significantly blocked migration; also recorded: inhibited HUVEC cell migration | similar | significantly blocked migration | ≤ 50 | ≤ 1 | stronger effect on both shrinkage and migration than CA4; also recorded: more potent effect on HUVEC cell morphology than CA4 | potent inhibitory effect | ≤ 4 | stronger effect on both shrinkage and migration than CA4 | some of the VE-cadherin junctions were disengaged | reduced | significantly abolished VE-cadherin staining | most of the cell junctions were disengaged
